Here are results for two molecules from ChEMBL document CHEMBL1142394, “Morphinane alkaloid dimers from Sinomenium acutum” (J Nat Prod, 2008).

For one test, the system named is HeLa. As to the kind of experiment: Cytotoxicity against human HeLa cells by MTT assay. It is filed as functional, cell-based. In general terms: Tetrazolium assays rely on reduction of a dye to a coloured formazan, in cell work by metabolically active cells.
The test system of a further test is A549. As to the kind of experiment: Cytotoxicity against human A549 cells by MTT assay. It is filed as functional, cell-based.

The term IC50 denotes the concentration that gives 50% inhibition. Read a high IC50 as a need for much substance. Take `COC1=C[C@@H]2[C@@H]3Cc4c(-c5cc(OC)c(O)c6c5C[C@H]5[C@H]7C=C(OC)C(=O)C[C@@]67CCN5C)cc(OC)c(O)c4[C@]2(CCN3C)CC1=O`: the figures for the 50% inhibitory concentration (IC50) in the test with HeLa and in the test with A549 were 70.7 µM and 71.8 µM, respectively.
Taken in the same sequence, the figures for `COC1=C[C@@H]2[C@@H]3Cc4cc(-c5cc6c(c(O)c5OC)[C@@]57CCN(C)[C@@H](C6)[C@H]5C=C(OC)C(=O)C7)c(OC)c(O)c4[C@]2(CCN3C)CC1=O` were 71.7 µM and 65.5 µM.
